# Data reported in the supplement of paper PMC10307832.
# Columns and labels:
# Assay in all cases: relative viability (nuclei count vs DMSO), 5 days (fraction); higher = more cells survive
# [1] = compound: NC1(c2ccc(-c3nc4ccn5c(=O)[nH]nc5c4cc3-c3ccccc3)cc2)CCC1 [MK-2206] + COc1cc2c(Oc3ccc(NC(=O)C4(C(=O)Nc5ccc(F)cc5)CC4)cc3F)ccnc2cc1OCCCN1CCOCC1 [Foretinib] (partner 0.25 µM)
# Procedure, shortened: (§1)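 Lung cancer cell lines were pin-tool dosed in 1536-well plates on the day after seeding, with either a lone drug or a fixed anchor-drug dose plus five library-drug doses (not always all listed) in √10 steps. Nuclei were counted on 4× images after 5 days. Relative viability is the ratio of treated-well to vehicle-well nuclei counts, with each value a median of duplicate plates.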
# [2] = compound: CS(=O)(=O)N1CCN(Cc2cc3nc(-c4cccc5[nH]ncc45)nc(N4CCOCC4)c3s2)CC1 [Pictilisib] + Cc1nc(Nc2ncc(C(=O)Nc3c(C)cccc3Cl)s2)cc(N2CCN(CCO)CC2)n1 [Dasatinib] (partner 0.075 µM)
# Procedure, shortened: as §1
# [3] = compound: CS(=O)(=O)N1CCN(Cc2cc3nc(-c4cccc5[nH]ncc45)nc(N4CCOCC4)c3s2)CC1 [Pictilisib] + Cc1nc(NC(=O)N2CCC[C@H]2C(N)=O)sc1-c1ccnc(C(C)(C)C(F)(F)F)c1 [Alpelisib] (partner 2 µM)
# Procedure, shortened: as §1
# [4] = compound: NC1(c2ccc(-c3nc4ccn5c(=O)[nH]nc5c4cc3-c3ccccc3)cc2)CCC1 [MK-2206] + Cc1cc(Nc2cc(N3CCN(C)CC3)nc(Sc3ccc(NC(=O)C4CC4)cc3)n2)n[nH]1 [Tozasertib] (partner 0.1 µM)
# Procedure, shortened: as §1
# [5] = compound: NC1(c2ccc(-c3nc4ccn5c(=O)[nH]nc5c4cc3-c3ccccc3)cc2)CCC1 [MK-2206] + O=C(CCCCCCC(=O)Nc1ccccc1)NO [Vorinostat] (partner 1 µM)
# Procedure, shortened: as §1
Cell Line,relative viability ([1]; first compound 0.01 µM),relative viability ([1]; first compound 0.03162 µM),relative viability ([1]; first compound 0.3162 µM),relative viability ([1]; first compound 1 µM),relative viability ([2]; first compound 0.02 µM),relative viability ([2]; first compound 0.06325 µM),relative viability ([2]; first compound 0.6325 µM),relative viability ([2]; first compound 2 µM),relative viability ([3]; first compound 0.02 µM),relative viability ([3]; first compound 0.06325 µM),relative viability ([3]; first compound 0.6325 µM),relative viability ([3]; first compound 2 µM),relative viability ([4]; first compound 0.01 µM),relative viability ([4]; first compound 0.03162 µM),relative viability ([4]; first compound 0.3162 µM),relative viability ([4]; first compound 1 µM),relative viability ([5]; first compound 0.01 µM),relative viability ([5]; first compound 0.03162 µM),relative viability ([5]; first compound 0.3162 µM),relative viability ([5]; first compound 1 µM)
NCI-H2347,0.877,0.818,1.15,0.723,0.321,0.297,0.337,0.215,1.1,1.09,0.912,0.873,0.521,0.631,0.561,0.496,0.641,0.581,0.645,0.555
LCLC-103H,0.867,0.792,0.669,0.698,0.457,0.547,0.367,0.142,0.946,1.03,0.818,0.848,0.495,0.609,0.516,0.477,0.764,0.827,0.701,0.743
NCI-H650,0.935,1.13,1.05,1.13,0.498,0.497,0.41,0.333,1.05,1.15,1,0.888,0.703,0.76,0.751,0.772,0.455,0.414,0.345,0.428
NCI-H1975,1.08,0.96,0.91,0.801,0.368,0.242,0.105,0.144,0.69,0.564,0.41,0.227,0.798,0.66,0.573,0.535,0.712,0.63,0.572,0.522
NCI-H2126,1.14,1.17,1.18,1.13,0.626,0.566,0.337,0.3,0.776,0.712,0.679,0.564,0.814,0.897,0.822,0.775,0.718,0.789,0.608,0.623
NCI-H2087,1.11,1.1,1.17,1.08,0.672,0.822,0.632,0.691,1.22,1.06,1.02,0.954,0.26,0.242,0.223,0.259,0.469,1.1,0.791,0.862
